Experimental data published in US20250235543A1, “MODIFIED PROTEINS AND PROTEIN DEGRADERS” (Cullgen (Shanghai), Inc., priority 2021, published 2025).

Tests used:
[1] = system: cyclin D1; assay: Cyclin D1 percentage degradation in Calu-1 cells (immunoblotting); format: cell-based; details: 16 hours
Summary of the method: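 Cells were rinsed once in cold PBS and lysed in cold RIPA buffer containing protease and phosphatase inhibitors, with gentle agitation at 4° C. for 30 min. Lysates were spun at 13,000 rpm for 10 min at 4° C., protein was measured by BCA, and samples were boiled in Laemmli buffer at 99° C. for 5 min before SDS-PAGE immunoblotting.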

[2] = target: T1, CDK4 (Homo sapiens, UniProt P11802); assay: CDK4 percentage degradation in Calu-1 cells (immunoblotting); format: cell-based; details: for inhibition at 0.2 µM: Calu-1 cells, 200 nM, 16 hours, read-out: CDK4 Degradation (200 nM)
T1 construct: endogenous in cells; host or cells: Calu-1
T1 sequence (P11802 2-303 limits assumed): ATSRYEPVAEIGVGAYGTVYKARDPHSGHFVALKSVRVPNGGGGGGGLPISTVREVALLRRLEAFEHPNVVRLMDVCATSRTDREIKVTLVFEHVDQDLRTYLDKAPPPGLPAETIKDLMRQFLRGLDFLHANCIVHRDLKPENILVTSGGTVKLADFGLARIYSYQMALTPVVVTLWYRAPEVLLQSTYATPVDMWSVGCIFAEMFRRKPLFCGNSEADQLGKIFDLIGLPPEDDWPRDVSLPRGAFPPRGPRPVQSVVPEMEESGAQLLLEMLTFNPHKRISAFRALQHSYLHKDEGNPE
T1 sequence (P24385 whole entry partner): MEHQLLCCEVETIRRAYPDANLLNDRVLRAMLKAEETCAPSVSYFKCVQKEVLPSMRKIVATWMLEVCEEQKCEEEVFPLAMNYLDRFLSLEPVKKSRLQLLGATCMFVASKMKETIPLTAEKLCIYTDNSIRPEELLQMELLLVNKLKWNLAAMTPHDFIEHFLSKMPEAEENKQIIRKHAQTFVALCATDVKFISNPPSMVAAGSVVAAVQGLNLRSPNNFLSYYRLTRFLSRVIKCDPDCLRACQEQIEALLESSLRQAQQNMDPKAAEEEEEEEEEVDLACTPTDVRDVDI
T1 sequence (Q16531 2-1140 limits assumed, further chain): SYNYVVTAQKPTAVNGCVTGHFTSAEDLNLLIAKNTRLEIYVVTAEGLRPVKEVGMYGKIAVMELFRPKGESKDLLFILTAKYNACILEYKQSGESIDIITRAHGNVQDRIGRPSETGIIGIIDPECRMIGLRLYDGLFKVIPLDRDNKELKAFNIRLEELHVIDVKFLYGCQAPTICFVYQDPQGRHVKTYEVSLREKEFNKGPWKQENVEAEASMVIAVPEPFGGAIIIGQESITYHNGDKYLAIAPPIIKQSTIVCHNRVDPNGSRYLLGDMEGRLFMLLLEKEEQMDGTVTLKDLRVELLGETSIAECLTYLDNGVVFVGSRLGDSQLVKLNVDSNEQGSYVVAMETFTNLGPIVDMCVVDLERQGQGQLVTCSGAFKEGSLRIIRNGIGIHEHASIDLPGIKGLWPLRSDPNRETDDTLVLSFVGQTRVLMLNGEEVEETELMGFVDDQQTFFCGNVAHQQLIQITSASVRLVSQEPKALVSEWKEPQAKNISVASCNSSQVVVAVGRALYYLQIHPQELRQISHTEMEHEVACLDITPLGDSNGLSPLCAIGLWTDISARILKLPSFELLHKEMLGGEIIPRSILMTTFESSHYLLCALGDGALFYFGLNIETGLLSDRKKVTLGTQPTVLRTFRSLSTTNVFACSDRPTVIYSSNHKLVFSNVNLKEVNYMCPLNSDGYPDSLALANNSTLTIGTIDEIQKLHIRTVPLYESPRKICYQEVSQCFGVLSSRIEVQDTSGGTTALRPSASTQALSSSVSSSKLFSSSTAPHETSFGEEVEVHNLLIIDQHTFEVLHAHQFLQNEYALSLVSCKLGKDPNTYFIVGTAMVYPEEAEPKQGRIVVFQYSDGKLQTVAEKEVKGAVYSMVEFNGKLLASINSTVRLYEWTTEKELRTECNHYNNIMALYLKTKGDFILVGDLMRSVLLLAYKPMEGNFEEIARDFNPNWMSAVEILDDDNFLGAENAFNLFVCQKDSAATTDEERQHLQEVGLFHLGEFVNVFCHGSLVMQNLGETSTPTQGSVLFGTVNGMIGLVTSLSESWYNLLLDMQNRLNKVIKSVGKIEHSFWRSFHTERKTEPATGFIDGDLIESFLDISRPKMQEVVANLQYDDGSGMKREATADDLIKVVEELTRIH
Summary of the method: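 Cultured cells were rinsed once in cold PBS and lysed in cold RIPA buffer containing protease and phosphatase inhibitors, with gentle agitation at 4° C. for 30 min. Lysates were centrifuged at 13,000 rpm for 10 min at 4° C., and protein was quantified by BCA. Samples were then separated by SDS-PAGE, detected with ECL, and the CDK4 bands quantified in Image Lab.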

[3] = target: T2, DDB1 (Homo sapiens, UniProt Q16531, D705G/DEL396-460/DEL463-701/I704S/T703N); assay: SPR binding assay to immobilized DDB1ΔBPB; details: binding affinities to DDB1
T2 construct: His6 (N, cleaved yes); TEV protease cleavage site (N, cleaved yes); made in house; host or cells: SF9 insect cells, Bac-to-Bac baculovirus, pFastBacHTB vector
T2 sequence (Q16531 other isoform, or with tags, fused parts or gaps DEL396-460/DEL463-701/T703N/I704S/D705G): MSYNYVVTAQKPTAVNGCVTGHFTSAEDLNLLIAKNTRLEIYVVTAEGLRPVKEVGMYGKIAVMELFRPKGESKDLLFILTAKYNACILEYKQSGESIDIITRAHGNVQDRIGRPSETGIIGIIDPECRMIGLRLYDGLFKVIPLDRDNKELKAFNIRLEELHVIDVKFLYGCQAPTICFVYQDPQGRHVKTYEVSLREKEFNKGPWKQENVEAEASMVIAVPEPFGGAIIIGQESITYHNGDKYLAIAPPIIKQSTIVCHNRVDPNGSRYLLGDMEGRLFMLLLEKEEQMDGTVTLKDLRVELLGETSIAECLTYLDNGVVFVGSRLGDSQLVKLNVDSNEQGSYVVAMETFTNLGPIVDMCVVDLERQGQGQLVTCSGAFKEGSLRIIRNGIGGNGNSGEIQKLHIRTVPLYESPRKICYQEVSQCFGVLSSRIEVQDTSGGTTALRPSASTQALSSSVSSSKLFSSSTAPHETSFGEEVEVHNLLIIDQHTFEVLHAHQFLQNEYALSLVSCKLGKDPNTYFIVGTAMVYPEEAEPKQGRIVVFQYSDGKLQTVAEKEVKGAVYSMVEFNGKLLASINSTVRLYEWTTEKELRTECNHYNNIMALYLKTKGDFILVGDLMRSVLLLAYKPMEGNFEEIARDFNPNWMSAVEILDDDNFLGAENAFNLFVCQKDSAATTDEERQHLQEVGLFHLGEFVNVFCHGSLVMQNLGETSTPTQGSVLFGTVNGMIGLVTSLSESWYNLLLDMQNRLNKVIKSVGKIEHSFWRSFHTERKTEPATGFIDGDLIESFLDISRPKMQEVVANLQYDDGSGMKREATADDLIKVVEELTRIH
Description: The binding affinities of heterobifunctional compounds to DDB1 were determined by SPR assay (FIG. 1A-1B). Purified DDB1ΔBPB proteins were immobilized on a CM5 sensor chip, and a dose range of compound solutions were injected in multi-cycle kinetic format. Data were fit to a steady state model to provide equivalent dissociation constants (Kd).
Human DDB1ΔBPB (UniProt: Q16531. BPB domain, aa 396 to 705, is replaced with a GNGNSG linker) coding sequences were cloned into pFastBacHTB vector and were expressed in SF9 cells using Bac-to-Bac baculovirus expression system (Thermo Fisher Scientific). The expression constructs include an N-terminal His6-tag to facilitate the purification, and a TEV protease cleavage site in between. DDB1ΔBPB proteins were obtained from supernatant of cell lysates and purified through sequential application of Ni affinity column (Ni-NTA column, Bio-Rad) and size-exclusion column (Superdex 200 16/600GL column, GE Healthcare) chromatography. Protein tags were cleaved off by TEV protease, and the resulting untagged proteins were further purified by Ni affinity column. Purified proteins were verified by immunoblotting, analytic SEC, and LC-MS.
SPR studies were performed on a Biacore X100 plus instrument (GE Healthcare). Immobilization of purified DDB1ΔBPB was carried out at 25° C. using a CM5 sensor chip. The surface was pre-equilibrated in HBS-EP running buffer (10 mM HEPES, pH7.4, 150 mM NaCl, 3 mM EDTA, 0.05% P20), before it was activated with EDC/NHS. DDB1ΔBPB proteins were immobilized by amine coupling to a density of 10,000-12,000 resonance units (RUs) on flow cell FC2, whereas flow cell FC1 was used as reference. Both protein immobilized and reference surfaces were deactivated with 1M ethanolamine. All interaction experiments were performed at 25° C. Test compounds were prepared and serially diluted in HBS-EP running buffer containing final 5% DMSO (6-point two-fold serial dilution, 100 μM-3.125 μM final concentration of compounds). Compound solutions were injected individually in multi-cycle kinetic format without regeneration (flow rate 30 μl/min, association time 120 s, dissociation time 120 s). Sensorgrams from reference surfaces and blank injections were subtracted from the raw data (double-referencing) and the data was solvent-corrected prior to analysis. All data were fit to steady state affinity model using Biacore Evaluation Software to provide equivalent dissociation constants (Kd).

| Kd [3] [µM] | SMILES | other results |
| --- | --- | --- |
| < 20 | CC(=O)c1c(C)c2cnc(Nc3ccc(N4CCN(CC(=O)NCCOCCOCCOCCOCCOCCNc5ccc(C(=O)Nc6nc(C7CC7)c(C)s6)c(C)c5)CC4)cn3)nc2n(C2CCCC2)c1=O [CPD-046, 4-((1-(4-(6-((6-Acetyl-8-cyclopentyl-5-methyl-7-oxo-7,8-dihydropyrido[2,3-d]pyrimidin-2-yl)amino)pyridin-3-yl)piperazin-1-yl)-2-oxo-6,9,12,15,18-pentaoxa-3-azaicosan-20-yl)amino)-N-(4-cyclopropyl-5-methylthiazol-2-yl)-2-methylbenzamide] | CyclinD1 Degradation (200 nM) [1]: A (protein percentage degradation >=80%); inhibition at 0.2 µM [2]: > 80% |
| > 100 | Cc1ccccc1C(=O)Nc1nc(C2CC2)c(C)s1 [B1-7, N-(4-cyclopropyl-5-methylthiazol-2-yl)-2-methylbenzamide] | – |
| 20 to 50 | CCc1nc(NC(=O)c2ccccc2C)sc1C [B1-5, N-(4-ethyl-5-methylthiazol-2-yl)-2-methylbenzamide] | – |
| < 20 | Cc1cc(NCCOCCOCCOCCOCCOCCN)ccc1C(=O)Nc1nc(C)c(C)s1 [BL1-36, 4-((17-amino-3,6,9,12,15-pentaoxaheptadecyl)amino)-N-(4,5-dimethylthiazol-2-yl)-2-methylbenzamide] | – |
| 20 to 50 | CC(=O)NCCCCCCCCC(=O)Nc1ccccc1C(=O)Nc1nc(C)c(C)s1 [B1-79, 2-(9-acetamidononanamido)-N-(4,5-dimethylthiazol-2-yl)benzamide] | – |
| 50 to 100 | Cc1ccccc1C(=O)Nc1nc(C(C)C)c(C)s1 [B1-3, N-(4-isopropyl-5-methylthiazol-2-yl)-2-methylbenzamide] | – |
| < 20 | COC(=O)c1nc(NC(=O)c2ccc(NCCOCCOCCOCCOCCOCCN)cc2C)sc1C [BL1-38, methyl 2-(4-((17-amino-3,6,9,12,15-pentaoxaheptadecyl)amino)-2-methylbenzamido)-5-methylthiazole-4-carboxylate] | – |
| > 100 | CC(=O)Nc1ccccc1C(=O)Nc1ccc(C)cn1 [B1-31, 2-acetamido-N-(5-methylpyridin-2-yl)benzamide] | – |
| 20 to 50 | COc1ccc(NC(=O)c2ccccc2NC(C)=O)nc1 [B1-83, 2-acetamido-N-(5-methoxypyridin-2-yl)benzamide] | – |
| < 20 | CC(=O)NCCOCCOCCNc1cccc(C(=O)Nc2nc(C)c(C)s2)c1C [B1-80, 3-((2-(2-(2-acetamidoethoxy)ethoxy)ethyl)amino)-N-(4,5-dimethylthiazol-2-yl)-2-methylbenzamide] | – |
| < 20 | CC(=O)c1c(C)c2cnc(Nc3ccc(N4CCN(CC(=O)NCCOCCOCCOCCC(=O)Nc5ccccc5C(=O)Nc5nc(C)c(C)s5)CC4)cn3)nc2n(C2CCCC2)c1=O [CPD-114, 2-(1-(4-(6-((6-Acetyl-8-cyclopentyl-5-methyl-7-oxo-7,8-dihydropyrido[2,3-d]pyrimidin-2-yl)amino)pyridin-3-yl)piperazin-1-yl)-2-oxo-6,9,12-trioxa-3-azapentadecan-15-amido)-N-(4,5-dimethylthiazol-2-yl)benzamide] | CyclinD1 Degradation (200 nM) [1]: A (protein percentage degradation >=80%); inhibition at 0.2 µM [2]: > 80% |
| < 20 | CCc1nc(NC(=O)c2ccc(NCCOCCOCCOCCOCCOCCNC(=O)CN3CCN(c4ccc(Nc5ncc6c(C)c(C(C)=O)c(=O)n(C7CCCC7)c6n5)nc4)CC3)cc2C)sc1C [CPD-047, 4-((1-(4-(6-((6-Acetyl-8-cyclopentyl-5-methyl-7-oxo-7,8-dihydropyrido[2,3-d]pyrimidin-2-yl)amino)pyridin-3-yl)piperazin-1-yl)-2-oxo-6,9,12,15,18-pentaoxa-3-azaicosan-20-yl)amino)-N-(4-ethyl-5-methylthiazol-2-yl)-2-methylbenzamide] | CyclinD1 Degradation (200 nM) [1]: A (protein percentage degradation >=80%); inhibition at 0.2 µM [2]: > 80% |
| > 100 | CC(=O)Nc1ccccc1C(=O)Nc1ccc(C)c(C2CC2)n1 [B1-73, 2-acetamido-N-(6-cyclopropyl-5-methylpyridin-2-yl)benzamide] | – |
| > 100 | Cc1ccccc1C(=O)Nc1cc(C)n(C)n1 [B1-8, N-(1,5-dimethyl-1H-pyrazol-3-yl)-2-methylbenzamide] | – |
| 20 to 50 | COc1ccc(NC(=O)c2ccccc2NC(C)=O)nn1 [B1-53, 2-acetamido-N-(6-methoxypyridazin-3-yl)benzamide] | – |
| 20 to 50 | CNc1ccc(C(=O)Nc2nc(C)c(C)s2)c(NC(C)=O)c1 [B1-67, 2-acetamido-N-(4,5-dimethylthiazol-2-yl)-4-(methylamino)benzamide] | – |
| < 20 | CC(=O)c1c(C)c2cnc(Nc3ccc(N4CCN(CC(=O)NCCOCCOCCOCCOCCOCCNc5ccc(C(=O)Nc6nc(Br)c(C)s6)c(C)c5)CC4)cn3)nc2n(C2CCCC2)c1=O [CPD-044, 4-((1-(4-(6-((6-Acetyl-8-cyclopentyl-5-methyl-7-oxo-7,8-dihydropyrido[2,3-d]pyrimidin-2-yl)amino)pyridin-3-yl)piperazin-1-yl)-2-oxo-6,9,12,15,18-pentaoxa-3-azaicosan-20-yl)amino)-N-(4-bromo-5-methylthiazol-2-yl)-2-methylbenzamide] | CyclinD1 Degradation (200 nM) [1]: A (protein percentage degradation >=80%); inhibition at 0.2 µM [2]: 50 to 80% |
| 20 to 50 | CC(=O)Nc1ccccc1C(=O)Nc1ccc(N(C)C)nn1 [B1-71, 2-acetamido-N-(6-(dimethylamino)pyridazin-3-yl)benzamide] | – |
| < 20 | CC(=O)c1c(C)c2cnc(Nc3ccc(N4CCN(CC(=O)NCCOCCOCCC(=O)Nc5ccccc5C(=O)Nc5nc(C)c(C)s5)CC4)cn3)nc2n(C2CCCC2)c1=O [CPD-115, 2-(3-(2-(2-(2-(4-(6-((6-Acetyl-8-cyclopentyl-5-methyl-7-oxo-7,8-dihydropyrido[2,3-d]pyrimidin-2-yl)amino)pyridin-3-yl)piperazin-1-yl)acetamido)ethoxy)ethoxy)propanamido)-N-(4,5-dimethylthiazol-2-yl)benzamide] | CyclinD1 Degradation (200 nM) [1]: A (protein percentage degradation >=80%); inhibition at 0.2 µM [2]: > 80% |
| < 20 | CNc1ccc(C(=O)Nc2ccc(C)cn2)c(NC(C)=O)c1 [B1-88, 2-acetamido-4-(methylamino)-N-(5-methylpyridin-2-yl)benzamide] | – |
| 20 to 50 | CC(=O)Nc1ccccc1C(=O)Nc1nc(C)c(C)s1 [B1-6, 2-acetamido-N-(4,5-dimethylthiazol-2-yl)benzamide] | – |
| > 100 | Cc1ccccc1C(=O)Nc1nc(C)c(C)s1 [B1-1, N-(4,5-dimethylthiazol-2-yl)-2-methylbenzamide] | – |
| < 20 | Cc1cnc(NC(=O)c2ccc(NCCOCCOCCOCCOCCOCCN)cc2C)s1 [BL1-24, 4-((17-amino-3,6,9,12,15-pentaoxaheptadecyl)amino)-2-methyl-N-(5-methylthiazol-2-yl)benzamide] | – |
| < 20 | COC(=O)c1nc(NC(=O)c2ccccc2C)sc1C [B1-4, methyl 5-methyl-2-(2-methylbenzamido)thiazole-4-carboxylate] | – |
| > 100 | Cc1ccccc1C(=O)Nc1nc(Br)c(C)s1 [B1-2, N-(4-bromo-5-methylthiazol-2-yl)-2-methylbenzamide] | – |

| SMILES | Kd [3] [µM] | other results |
| --- | --- | --- |
| Cc1cnc(NC(=O)c2ccc(NCCOCCOCCOCCOCCOCCNC(=O)CN3CCN(c4ccc(Nc5ncc6cc7n(c6n5)C5(CCCCC5)CNC7=O)nc4)CC3)cc2C)s1 [CPD-022, 2-Methyl-N-(5-methylthiazol-2-yl)-4-((2-oxo-1-(4-(6-((6′-oxo-7′,8′-dihydro-6′H-spiro[cyclohexane-1,9′-pyrazino[1′,2′:1,5]pyrrolo[2,3-d]pyrimidin]-2′-yl)amino)pyridin-3-yl)piperazin-1-yl)-6,9,12,15,18-pentaoxa-3-azaicosan-20-yl)amino)benzamide] | < 20 | CyclinD1 Degradation (10 μM) ([1]; 10 μM): A (protein percentage degradation >= 80%); inhibition at 10 µM ([2]; Calu-1, 16 h, read-out: CDK4 Degradation (10 μM)): > 80% |
